Target: CjArsP (Campylobacter jejuni, UniProt B5LWZ8)
Assay type: biochemical

CjArsP, sequence (B5LWZ8 1-315): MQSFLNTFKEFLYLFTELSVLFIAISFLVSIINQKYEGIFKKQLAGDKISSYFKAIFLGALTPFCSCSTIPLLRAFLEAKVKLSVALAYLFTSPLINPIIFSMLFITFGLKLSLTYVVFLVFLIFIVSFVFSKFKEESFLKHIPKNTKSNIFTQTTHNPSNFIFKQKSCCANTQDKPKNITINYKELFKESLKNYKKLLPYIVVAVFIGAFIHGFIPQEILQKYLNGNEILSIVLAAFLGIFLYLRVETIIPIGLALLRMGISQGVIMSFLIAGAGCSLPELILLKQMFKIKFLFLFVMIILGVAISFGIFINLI

SMILES: C[As](O)O [MAs(III), methylarsenite]
- uptake into everted membrane vesicles, As by ICP-MS: Everted membrane vesicles from cells expressing CjarsP accumulated MAs(III) when NADH was supplied

Source: paper PMC4681449 (Molecular microbiology, 2015)
